The test relates to P388 leukemia ip, CD2F1 mice, survival T/C. Nature of the test: NCI In Vivo Anticancer Drug Screen. Data for tumor model P388 Leukemia (intraperitoneal) in CD2F1 (CDF1) mice. The note with it: endpoint: median survival time, higher = longer survival. A digest of the protocol: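 Mice carrying the transplanted tumor received test compound or vehicle. Survival was recorded in each group, and the value is the treated-group measurement divided by that of the vehicle-treated control group.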

The mark [1] stands for this setting: dose: 50.0 mg/kg/injection, schedule: Q01DX009 (ip), vehicle: saline with Tween-80.
[2] abbreviates: dose: 100.0 mg/kg/injection, schedule: Q01DX009 (ip), vehicle: saline with Tween-80.
[3] abbreviates: dose: 200.0 mg/kg/injection, schedule: Q01DX009 (ip), vehicle: saline with Tween-80.
[4] abbreviates: dose: 50.0 mg/kg/injection, schedule: Q01DX005 (ip), vehicle: saline with Tween-80.
[5] abbreviates: dose: 100.0 mg/kg/injection, schedule: Q01DX005 (ip), vehicle: saline with Tween-80.
The mark [6] stands for this setting: dose: 200.0 mg/kg/injection, schedule: Q01DX005 (ip), vehicle: saline with Tween-80.
Where [7] appears, read: dose: 50.0 mg/kg/injection, schedule: Q01DX009 (ip), vehicle: Klucel (hydroxypropylcellulose) (HPC).
[8] abbreviates: dose: 60.0 mg/kg/injection, schedule: Q01DX005 (ip), vehicle: saline with Tween-80.
Setting [9] is: dose: 100.0 mg/kg/injection, schedule: Q01DX009 (ip), vehicle: Klucel (hydroxypropylcellulose) (HPC).
[10] abbreviates: dose: 120.0 mg/kg/injection, schedule: Q01DX005 (ip), vehicle: saline with Tween-80.
Where [11] appears, read: dose: 200.0 mg/kg/injection, schedule: Q01DX009 (ip), vehicle: Klucel (hydroxypropylcellulose) (HPC).
Where [12] appears, read: dose: 240.0 mg/kg/injection, schedule: Q01DX005 (ip), vehicle: saline with Tween-80.
The mark [13] stands for this setting: dose: 60.0 mg/kg/injection, schedule: Q01DX005 (ip), vehicle: Klucel (hydroxypropylcellulose) (HPC).
The mark [14] stands for this setting: dose: 120.0 mg/kg/injection, schedule: Q01DX005 (ip), vehicle: Klucel (hydroxypropylcellulose) (HPC).
Where [15] appears, read: dose: 240.0 mg/kg/injection, schedule: Q01DX005 (ip), vehicle: Klucel (hydroxypropylcellulose) (HPC).
[16] abbreviates: dose: 50.0 mg/kg/injection, schedule: Q01DX009 (ip), vehicle: saline.
[17] abbreviates: dose: 100.0 mg/kg/injection, schedule: Q01DX009 (ip), vehicle: saline.
Where [18] appears, read: dose: 200.0 mg/kg/injection, schedule: Q01DX009 (ip), vehicle: saline.

Inconclusive results and toxic doses are left out.

This passage reports T/C results from PubChem BioAssay AID330 (DTP/NCI, 2004).

Regarding `CN1C(=O)C(=C/C=C/N(C)c2ccccc2)C(=O)N(C)C1=O`, the T/C under setting [1] is 96 % of control, the T/C under setting [2] is 95 % of control and the T/C under setting [3] is 88 % of control.
`CCN(CC)CCCNc1cc(OC)cc2nc3cc(Cl)ccc3nc12`: the T/C runs as follows: (dose: 50.0 mg/kg/injection, schedule: Q01DX005 (ip), vehicle: saline) 100 % of control; (dose: 100.0 mg/kg/injection, schedule: Q01DX005 (ip), vehicle: saline) 106 % of control.
As for `Nc1nnc2nc(C(C(=O)c3ccc(Cl)cc3Cl)c3nc4nnc(N)n4[nH]c3=O)c(=O)[nH]n12`, the T/C under setting [4] was 92 % of control, the T/C under setting [5] is 100 % of control and the T/C under setting [6] is 100 % of control.
Regarding `Cc1ncc(C(N)=S)c(N)n1`, the T/C is, setting by setting: under setting [1], 103 % of control; under setting [2], 108 % of control; under setting [3], 105 % of control.
Consider `CCCCN(CCCC)C(=N)/C=C/c1ccccc1`, for which the T/C by setting is: (dose: 6.25 mg/kg/injection, schedule: Q01DX005 (ip), vehicle: Klucel (hydroxypropylcellulose) (HPC)) 97 % of control; (dose: 12.5 mg/kg/injection, schedule: Q01DX005 (ip), vehicle: Klucel (hydroxypropylcellulose) (HPC)) 103 % of control.
As to `O=C(Nc1ccc(Cl)c(Cl)c1)C1C(=O)C(=O)N(c2ccc(Cl)c(Cl)c2)C1=O` (stereo unspecified), the T/C was 97 % of control under setting [7]; 101 % of control under setting [8]; 109 % of control under setting [9]; 100 % of control under setting [10]; 103 % of control under setting [11]; 103 % of control under setting [12].
For `C1=CC(=CN2CCc3ccccc3C2)C=C1`, the T/C is, setting by setting: under setting [13], 101 % of control; under setting [14], 102 % of control; under setting [15], 103 % of control.
Regarding `CN(C)CCOc1ccccn1`, the T/C under setting [16] was 98 % of control and the T/C under setting [17] was 101 % of control.
Take `COc1ccc(C2COc3cc(O)c(O)cc3C2)cc1` (stereo unspecified): the T/C runs as follows: under setting [8], 97 % of control; under setting [10], 107 % of control; under setting [12], 97 % of control.
With `COC(=O)C(C#N)c1ccccn1` (stereo unspecified), the T/C runs as follows: under setting [1], 96 % of control; under setting [2], 100 % of control.
For the molecule `O=C(NNC(O)C(F)(F)F)c1ccccc1` (stereo unspecified), the T/C (dose: 100.0 mg/kg/injection, schedule: Q04DX003 (ip), vehicle: Klucel (hydroxypropylcellulose) (HPC)) is 103 % of control; the T/C (dose: 200.0 mg/kg/injection, schedule: Q04DX003 (ip), vehicle: Klucel (hydroxypropylcellulose) (HPC)) is 103 % of control; the T/C (dose: 400.0 mg/kg/injection, schedule: Q04DX003 (ip), vehicle: Klucel (hydroxypropylcellulose) (HPC)) is 110 % of control.
On to `CCCCC(CC)C(=O)OC(C)CN(CC(C)OC(=O)C(CC)CCCC)C(=O)C(C)OC(=O)C(CC)CCCC` (stereo unspecified), for which the T/C by setting is: under setting [4], 103 % of control; under setting [5], 96 % of control; under setting [6], 103 % of control.
In the case of `COc1cc(C2c3cc4c(cc3C(O)C(CO)C2CO)OCO4)cc(OC)c1OC` (stereo unspecified), the T/C runs as follows: (dose: 11.0 mg/kg/injection, schedule: Q01DX009 (ip), vehicle: saline with Tween-80) 118 % of control; (dose: 25.0 mg/kg/injection, schedule: Q04DX003 (ip), vehicle: saline with Tween-80) 115 % of control; (dose: 37.5 mg/kg/injection, schedule: Q01DX009 (ip), vehicle: saline with Tween-80) 150 % of control; (dose: 50.0 mg/kg/injection, schedule: Q01DX005 (ip), vehicle: Klucel (hydroxypropylcellulose) (HPC)) 103 % of control; (dose: 100.0 mg/kg/injection, schedule: Q01DX005 (ip), vehicle: Klucel (hydroxypropylcellulose) (HPC)) 97 % of control; (dose: 100.0 mg/kg/injection, schedule: Q01DX009 (ip), vehicle: saline sonified) 165 % of control. Moreover, the T/C was 155 % of control (dose: 100.0 mg/kg/injection, schedule: Q04DX003 (ip), vehicle: saline with Tween-80); 94 % of control (dose: 200.0 mg/kg/injection, schedule: Q01DX005 (ip), vehicle: Klucel (hydroxypropylcellulose) (HPC)); 195 % of control (dose: 200.0 mg/kg/injection, schedule: Q01DX009 (ip), vehicle: saline sonified); 154 % of control (dose: 264.0 mg/kg/injection, schedule: Q04DX003 (ip), vehicle: saline with Tween-80); 95 % of control (dose: 400.0 mg/kg/injection, schedule: Q01DX009 (ip), vehicle: saline sonified); 163 % of control (dose: 400.0 mg/kg/injection, schedule: Q04DX003 (ip), vehicle: saline with Tween-80).
As to `Cc1ccc(-n2c(O)c(N=Nc3ccccc3Cl)c(=O)n(-c3ccc(Br)cc3)c2=S)cc1`, the T/C (dose: 100.0 mg/kg/injection, schedule: Q01DX001 (ip), vehicle: saline with Tween-80) was 98 % of control; the T/C (dose: 200.0 mg/kg/injection, schedule: Q01DX001 (ip), vehicle: saline with Tween-80) is 101 % of control; the T/C (dose: 400.0 mg/kg/injection, schedule: Q01DX001 (ip), vehicle: saline with Tween-80) is 96 % of control.
As to `CCOC(=O)C1=S=C(SC)N(C)C1=O`, the T/C under setting [1] is 107 % of control and the T/C under setting [2] is 107 % of control.
Turning to `CC(C(=O)O)[As](=O)(O)O` (stereo unspecified), the T/C is 102 % of control (dose: 100.0 mg/kg/injection, schedule: Q04DX003 (ip), vehicle: saline); 99 % of control (dose: 200.0 mg/kg/injection, schedule: Q04DX003 (ip), vehicle: saline); 98 % of control (dose: 400.0 mg/kg/injection, schedule: Q04DX003 (ip), vehicle: saline).
`CNS(=O)(=O)Cc1ccccc1`: the T/C is 107 % of control under setting [16]; 107 % of control under setting [17]; 100 % of control under setting [18]; 108 % of control (dose: 400.0 mg/kg/injection, schedule: Q01DX009 (ip), vehicle: saline).
Turning to `OC1(c2ccccc2)C(c2ccccc2)=C(c2ccccc2)C(c2ccc(CCCCCCCCc3ccc(C4=C(c5ccccc5)C(O)(c5ccccc5)C(c5ccccc5)=C4c4ccccc4)cc3)cc2)=C1c1ccccc1` (stereo unspecified), the T/C (dose: 100.0 mg/kg/injection, schedule: Q01DX001 (ip), vehicle: Klucel (hydroxypropylcellulose) (HPC)) is 86 % of control and the T/C (dose: 200.0 mg/kg/injection, schedule: Q01DX001 (ip), vehicle: Klucel (hydroxypropylcellulose) (HPC)) was 89 % of control.
As for `FC(F)(F)C1=C(C(F)(F)F)SP(Cl)(c2ccccc2)(c2ccccc2)S1`, the T/C was 107 % of control (dose: 50.0 mg/kg/injection, schedule: Q04DX003 (ip), vehicle: other); 100 % of control (dose: 100.0 mg/kg/injection, schedule: Q04DX003 (ip), vehicle: other); 93 % of control (dose: 200.0 mg/kg/injection, schedule: Q04DX003 (ip), vehicle: other).
Turning to `C=CC1(O)CCCCC1`, the T/C is, setting by setting: under setting [16], 97 % of control; under setting [17], 100 % of control; under setting [18], 107 % of control.
On to `Nc1nc2c(C(=O)N3CCOCC3)nnn2c2ccccc12`, for which the T/C was 100 % of control under setting [1], 92 % of control under setting [2] and 96 % of control under setting [3].
Regarding `CC(N1CCOCC1)C(O)(c1ccccc1)c1ccccn1` (stereo unspecified), the T/C (dose: 50.0 mg/kg/injection, schedule: Q01DX005 (ip), vehicle: saline + alcohol) is 103 % of control and the T/C (dose: 100.0 mg/kg/injection, schedule: Q01DX005 (ip), vehicle: saline + alcohol) was 115 % of control.
With `COc1cccc2c1S(=O)(=O)C(c1ccccc1)=CC2=O`, the T/C runs as follows: under setting [13], 105 % of control; under setting [14], 105 % of control; under setting [15], 120 % of control.
For the molecule `CCC(O)C(C)C=O` (stereo unspecified), the T/C (dose: 60.0 mg/kg/injection, schedule: Q01DX005 (ip), vehicle: saline) is 107 % of control; the T/C (dose: 120.0 mg/kg/injection, schedule: Q01DX005 (ip), vehicle: saline) is 100 % of control; the T/C (dose: 240.0 mg/kg/injection, schedule: Q01DX005 (ip), vehicle: saline) is 104 % of control.
Consider `Cc1ccc(S(=O)(=O)OCCn2nc(C)c3c(C)cc(=O)oc32)cc1`, for which the T/C reads like this: under setting [7], 103 % of control; under setting [9], 107 % of control; under setting [11], 100 % of control.
